Reference: ChEMBL document CHEMBL1201862, “PubChem BioAssay data set” (2004)
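Where inhibition never reached the appropriate level, the endpoint shown equals the highest concentration tested. Otherwise, values were interpolated linearly from a five-concentration, 48-hour dose response in 96-well plates. GI50 marks 50% less growth.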 The source made the active and inactive calls. Cut-off read from the data, not from the text of the source: active = GI50 up to about 1.1 µM and inactive = higher.

Experiments:
Test in all cases: inhibition of tumour cell growth, NCI panel, 48 h
SK-OV-3 = system: SK-OV-3
SF-295 = system: SF-295
OVCAR-3 = system: OVCAR-3
HT-29 = system: HT-29
SF-268 = system: SF-268
NCI-H460 = system: NCI-H460
ACHN = system: ACHN
NCI/ADR-RES = system: NCI/ADR-RES
HCT-15 = system: HCT-15
HCT-116 = system: HCT-116
RXF 393 = system: RXF 393
KM12 = system: KM12
NCI-H226 = system: NCI-H226
DU-145 = system: DU-145
SK-MEL-2 = system: SK-MEL-2
MCF7 = system: MCF7
MDA-MB-231 = system: MDA-MB-231
NCI-H23 = system: NCI-H23
HOP-92 = system: HOP-92
UACC-257 = system: UACC-257
UACC-62 = system: UACC-62
LOX IMVI = system: LOX IMVI
HOP-62 = system: HOP-62
SF-539 = system: SF-539
SR = system: SR
IGROV-1 = system: IGROV-1
SW-620 = system: SW-620
SN12C = system: SN12C
RPMI-8226 = system: RPMI-8226
EKVX = system: EKVX
SNB-19 = system: SNB-19
SNB-75 = system: SNB-75
U-251 = system: U-251
OVCAR-5 = system: OVCAR-5
MDA-MB-435 = system: MDA-MB-435
CCRF-CEM = system: CCRF-CEM
UO-31 = system: UO-31
K562 = system: K562
786-0 = system: 786-0
M14 = system: M14
OVCAR-4 = system: OVCAR-4
T47D = system: T47D
BT-549 = system: BT-549
PC-3 = system: PC-3
A498 = system: A498
SK-MEL-28 = system: SK-MEL-28
CAKI-1 = system: CAKI-1
OVCAR-8 = system: OVCAR-8
NCI-H522 = system: NCI-H522
MDA-N = system: MDA-N
TK-10 = system: TK-10
COLO 205 = system: COLO 205
A549 = system: A549
HCC 2998 = system: HCC 2998
MOLT-4 = system: MOLT-4
Malme-3M = system: Malme-3M
SK-MEL-5 = system: SK-MEL-5
HL-60 = system: HL-60

`CN1C(=O)[C@](C)(Cc2ccc(F)cc2)N(C(=O)OC(C)(C)C)[C@@H]1C(C)(C)C` was tested, and the GI50 (SK-OV-3) was 43.9 µM (inactive), the GI50 (SF-295) was 20.3 µM (inactive) and the GI50 (OVCAR-3) was 31.5 µM (inactive). The GI50 (HT-29) was 22.1 µM (inactive), the GI50 (SF-268) was 55.3 µM (inactive) and the GI50 (NCI-H460) was 31.5 µM (inactive). For the same molecule, the GI50 (ACHN) was 37.7 µM (inactive), the GI50 (NCI/ADR-RES) was 20.4 µM (inactive) and the GI50 (HCT-15) was 37.8 µM. For the same molecule, the GI50 (HCT-116) was 30 µM (inactive), the GI50 (RXF 393) was 21.3 µM (inactive) and the GI50 (KM12) was 30.5 µM (inactive). The GI50 (NCI-H226) was 23.6 µM (inactive), the GI50 (DU-145) was 42.3 µM (inactive) and the GI50 (SK-MEL-2) was 31.3 µM (inactive). For the same molecule, the GI50 (MCF7) was 22.8 µM (inactive), the GI50 (MDA-MB-231) was 38.1 µM (inactive) and the GI50 (NCI-H23) was 33.1 µM (inactive). For the same molecule, the GI50 (HOP-92) was 30.7 µM (inactive), the GI50 (UACC-257) was 30.5 µM (inactive) and the GI50 (UACC-62) was 32 µM (inactive). For the same molecule, the GI50 (LOX IMVI) was 21.6 µM (inactive), the GI50 (HOP-62) was 40.7 µM (inactive) and the GI50 (SF-539) was 41.2 µM (inactive). The GI50 (SR) was 21.2 µM (inactive), the GI50 (IGROV-1) was 43.9 µM (inactive) and the GI50 (SW-620) was 37.3 µM (inactive). For the same molecule, the GI50 (SN12C) was 17.9 µM (inactive), the GI50 (RPMI-8226) was 22.4 µM (inactive) and the GI50 (EKVX) was 47.1 µM (inactive). For the same molecule, the GI50 (SNB-19) was > 100 µM (inactive), the GI50 (SNB-75) was 29.2 µM (inactive) and the GI50 (U-251) was 29.6 µM (inactive). For the same molecule, the GI50 (OVCAR-5) was > 100 µM (inactive), the GI50 (MDA-MB-435) was 39.3 µM (inactive) and the GI50 (CCRF-CEM) was 40.9 µM (inactive). For the same molecule, the GI50 (UO-31) was 33.6 µM (inactive), the GI50 (K562) was 25.6 µM (inactive) and the GI50 (786-0) was 29.3 µM (inactive). For the same molecule, the GI50 (M14) was 41.6 µM (inactive), the GI50 (OVCAR-4) was 43.1 µM (inactive) and the GI50 (T47D) was 26.7 µM (inactive). For the same molecule, the GI50 (BT-549) was 34.4 µM (inactive), the GI50 (PC-3) was 30.5 µM (inactive) and the GI50 (A498) was 23.4 µM (inactive). For the same molecule, the GI50 (SK-MEL-28) was 55.3 µM (inactive), the GI50 (CAKI-1) was 36.4 µM (inactive) and the GI50 (OVCAR-8) was 28.8 µM (inactive). For the same molecule, the GI50 (NCI-H522) was 23.1 µM (inactive), the GI50 (MDA-N) was 37.4 µM (inactive) and the GI50 (TK-10) was 80.9 µM (inactive). For the same molecule, the GI50 (COLO 205) was 19.5 µM (inactive), the GI50 (A549) was 42.4 µM (inactive) and the GI50 (HCC 2998) was 24.3 µM (inactive). For the same molecule, the GI50 (MOLT-4) was 17.9 µM (inactive), the GI50 (Malme-3M) was > 100 µM (inactive) and the GI50 (SK-MEL-5) was 19.6 µM (inactive). For the same molecule, the GI50 (HL-60) was 11.4 µM (inactive).
